From patent publication US8846845B2, “Bioabsorbable and biocompatible polyurethanes and polyamides for medical devices” (Bezwada Biomedical, LLC, priority 2005, dated 2014)

Test: In vitro hydrolysis of functionalized phenolics in pH 7.4 buffer at reflux, monitored by TLC
Assay type: physicochemical
Conditions: reflux temp. (100° C.); 500 mg compound in 50 ml pH 7.4 buffer solution; TLC against original phenolic as control
Experimental: Selected compounds were examined for the rate of hydrolysis by conducting in vitro hydrolysis studies at reflux temp. (100° C.). For each experiment, 500 mg of a func-tionalized compound and 50 ml of pH 7.4 buffer solution (purchased from Aldrich Chemical) were charged into a 100 ml round bottom flask fitted with a condenser and the contents were refluxed. In vitro hydrolysis of the functionalized phenolics was monitored by thin layer chromatography (TLC) using corresponding starting material (original phenolic) as a control. In vitro hydrolysis was continued at reflux until the functionalized molecule hydrolyzed to the starting phenolic compound.

In order of falling “time in which the functionalized compound was hydrolyzed to the starting phenolic compound” value:
1. CC(Oc1ccc(N)cc1)C(=O)OCCOC(=O)C(C)Oc1ccc(N)cc1 (stereo not shown) [Example 32, 2-(4-Aminophenoxy)-propionic acid 2-[2-(4-aminophenoxy)-propionyloxy]-ethyl ester]  40 h
2. Nc1ccc(OCC(=O)OCCOC(=O)COc2ccc(N)cc2)cc1 [Example 25, (4-Amino-phenoxy)-acetic acid-2-[2-(4-amino-phenoxy)-acetoxy]-ethyl ester]  11.5 h
3. COC(=O)COC(=O)COc1ccc(NC(C)=O)cc1 [Example 48, (4-Acetylaminophenoxy)acetic acid methoxycarbonyl methyl ester]  8 h
4. COC(=O)COC(=O)COc1ccc(N)cc1 [Example 45, (4-Aminophenoxy)-acetic acid methoxycarbonylmethyl ester]  3 h
